Measurements reported in patent US9156801B2, “2-substituted oleanolic acid derivative, method preparing for same, and application thereof” (HANGZHOU BENSHENG PHARMACEUTICAL CO., LTD., priority 2011, dated 2015).
Converted amounts (≈) assume the structure as drawn.

Tests used:
RKO cell line = assay: solid tumor cell growth inhibition, MTT; format: cell-based; conditions: Homo sapiens, 72 h; for inhibition at 16 µg/mL: 16 μg/mL compound, read-out: IR (cell proliferation inhibition rate)
Procedure: (§1) Hep-2 (laryngeal carcinoma), A549 (human lung cancer), CaES-17 (esophageal cancer cell), PC-3 (prostate cancer), CNE (nasopharyngeal carcinoma cell), and SK-OV-3 (ovarian cancer cell), all of which are purchased from China Center For Type Culture Collection; RKO (human colon adenocarcinoma cell), MGC 803 (human gastric cancer cell), MG63 (osteosarcoma) and U87 MG (malignant glioma cell), all of which are purchased from Fuxiang Bio-tech Co. Ltd., Shanghai, China; PANC-1 (pancreatic cancer), Hep G2 (human liver cancer cell), Becap37 (human breast cancer cell), and Hela (human cervical cancer cell), all of which are donated by Cancer Research Institute of Zhejiang University, China.
(§2) Obtaining 4000 well-growing human solid tumor cells and inoculating them into wells of a 96-well cell culture plate. The culture medium is DMEM High Glucose cell culture medium containing 10% fetal bovine serum. The plate is placed in a carbon dioxide cell incubator (5% CO2) at 37° C. for 24 hours. After adding the 2-substituted oleanolic acid derivatives of different concentrations and mixing uniformly, the plate is placed in a carbon dioxide cell incubator (5% CO2) at 37° C. and incubated for 72 hours. Then the relative number of the living cells is determined by MTT method. In this experiment, the cell proliferation inhibition rate in control group (not treated with any compound) is set as 0%.

MGC 803 cell line = assay: solid tumor cell growth inhibition, MTT; format: cell-based; conditions: Homo sapiens; for inhibition at 16 µg/mL: MGC 803, 16 μg/mL compound, 72 h, read-out: IR (cell proliferation inhibition rate); for IC50: MGC 803, 72 h
Procedure: as §1, §2

A549 cell line = assay: solid tumor cell growth inhibition, MTT; format: cell-based; conditions: Homo sapiens; for IC50: A549, 72 h; for inhibition at 16 µg/mL: A549, 16 μg/mL compound, 72 h, read-out: IR (cell proliferation inhibition rate)
Procedure: as §1, §2

PC-3 cell line = assay: solid tumor cell growth inhibition, MTT; format: cell-based; conditions: Homo sapiens; for IC50: PC-3, 72 h; for inhibition at 16 µg/mL: PC-3, 16 μg/mL compound, 72 h, read-out: IR (cell proliferation inhibition rate)
Procedure: as §1, §2

U87 MG cell line = assay: solid tumor cell growth inhibition, MTT; format: cell-based; conditions: Homo sapiens, U-87 MG, 72 h; for inhibition at 16 µg/mL: 16 μg/mL compound, read-out: IR (cell proliferation inhibition rate)
Procedure: as §1, §2

Hep-2 cell line = assay: solid tumor cell growth inhibition, MTT; format: cell-based; conditions: Homo sapiens; for IC50: HEp-2, 72 h; for inhibition at 16 µg/mL: Hep-2, 16 μg/mL compound, 72 h, read-out: IR (cell proliferation inhibition rate)
Procedure: as §1, §2

PANC-1 cell line = assay: solid tumor cell growth inhibition, MTT; format: cell-based; conditions: Homo sapiens; for IC50: PANC-1, 72 h; for inhibition at 16 µg/mL: PANC-1, 16 μg/mL compound, 72 h, read-out: IR (cell proliferation inhibition rate)
Procedure: as §1, §2

Hela cell line = assay: solid tumor cell growth inhibition, MTT; format: cell-based; conditions: Homo sapiens, 72 h; for IC50: HeLa; for inhibition at 16 µg/mL: Hela, 16 μg/mL compound, read-out: IR (cell proliferation inhibition rate)
Procedure: as §1, §2

CaES-17 cell line = assay: solid tumor cell growth inhibition, MTT; format: cell-based; conditions: Homo sapiens, CaEs17; for inhibition at 16 µg/mL: CaES-17, 16 μg/mL compound, 72 h, read-out: IR (cell proliferation inhibition rate); for IC50: CaES-17, 72 h
Procedure: as §1, §2

SK-OV-3 cell line = assay: solid tumor cell growth inhibition, MTT; format: cell-based; conditions: Homo sapiens; for IC50: SK-OV-3, 72 h; for inhibition at 16 µg/mL: SK-OV-3, 16 μg/mL compound, 72 h, read-out: IR (cell proliferation inhibition rate)
Procedure: as §1, §2

MG-63 cell line = assay: solid tumor cell growth inhibition, MTT; format: cell-based; conditions: Homo sapiens; for IC50: MG-63, 72 h; for inhibition at 16 µg/mL: MG-63, 16 μg/mL compound, 72 h, read-out: IR (cell proliferation inhibition rate)
Procedure: as §1, §2

CNE cell line = assay: solid tumor cell growth inhibition, MTT; format: cell-based; conditions: Homo sapiens, 72 h; for inhibition at 16 µg/mL: 16 μg/mL compound, read-out: IR (cell proliferation inhibition rate)
Procedure: as §1, §2

Becap37 cell line = assay: solid tumor cell growth inhibition, MTT; format: cell-based; conditions: Homo sapiens; for inhibition at 16 µg/mL: Becap37, 16 μg/mL compound, 72 h, read-out: IR (cell proliferation inhibition rate); for IC50: Becap37, 72 h
Procedure: as §1, §2

H9 cell line = assay: leukemia cell growth inhibition, MTT; format: cell-based; conditions: Homo sapiens; for IC50: H9, 72 h; for inhibition at 16 µg/mL: H9, 16 μg/mL compound, 72 h, read-out: IR (cell proliferation inhibition rate)
Text: (§3) Leukemia cell lines: leukemia cell lines: K562/adr (drug-resistant, chronic myeloid leukemia, CML), NB4 (acute promyelocytic leukemia, AML), Kasumi-1 (acute myeloid leukemia M2 type, AML-M2), Jurkat (acute lymphoblastic leukemia, ALL), all of which are donated by Cancer Research Institute of Zhejiang University, China; and H9 (acute lymphoblastic leukemia, ALL), which is purchased from China Center for Type Culture Collection (CCTCC).
(§4) Obtaining 6000 well-growing leukemia cells and inoculating them into wells of a 96-well cell culture plate. The culture medium is the 1640 cell culture medium containing 10% fetal bovine serum. After adding the 2-substituted oleanolic acid derivatives of different concentrations and mixing uniformly, placing the plate in a carbon dioxide cell incubator (5% CO2) at 37° C. and incubated for 72 hours. Then the relative number of viable cells is determined by MTT method. In this experiment, cell proliferation inhibition rate in control group (not treated with any compound) is set as 0%.

K562/adr cell line = assay: leukemia cell growth inhibition, MTT; format: cell-based; conditions: Homo sapiens, 72 h; for IC50: K562/Adr; for inhibition at 16 µg/mL: K562/adr, 16 μg/mL compound, read-out: IR (cell proliferation inhibition rate)
Text: as §3, §4

NB4 cell line = assay: leukemia cell growth inhibition, MTT; format: cell-based; conditions: Homo sapiens, NB-4; for inhibition at 16 µg/mL: NB4, 16 μg/mL compound, 72 h, read-out: IR (cell proliferation inhibition rate); for IC50: NB4, 72 h
Text: as §3, §4

Kasumi-1 cell line = assay: leukemia cell growth inhibition, MTT; format: cell-based; conditions: Homo sapiens; for inhibition at 16 µg/mL: Kasumi-1, 16 μg/mL compound, 72 h, read-out: IR (cell proliferation inhibition rate); for IC50: Kasumi-1, 72 h
Text: as §3, §4

Jurkat cell line = assay: leukemia cell growth inhibition, MTT; format: cell-based; conditions: Homo sapiens, 72 h; for inhibition at 16 µg/mL: 16 μg/mL compound, read-out: IR (cell proliferation inhibition rate)
Text: as §3, §4

RPMI8226 cell line = assay: multiple myeloma cell growth inhibition, MTT; format: cell-based; conditions: Homo sapiens, RPMI-8226; for inhibition at 16 µg/mL: RPMI8226, 16 μg/mL compound, 72 h, read-out: IR (cell proliferation inhibition rate); for IC50: RPMI8226, 72 h
Procedure: Multiple myeloma cell lines: RPMI8226 (multiple myeloma), purchased from Fuxiang Bio-tech Co. Ltd., Shanghai, China.
Obtaining 6000 well-growing cells as above and inoculating them into wells of a 96-well cell culture plate. The culture medium is the 1640 cell culture medium containing 10% fetal bovine serum. After adding the 2-substituted oleanolic acid derivatives of different concentrations and mixing uniformly, placing the plate in a carbon dioxide cell incubator (5% CO2) at 37° C. and incubated for 72 hours. Then the relative number of viable cells is determined by MTT method. In this experiment, cell proliferation inhibition rate in control group (not treated with any compound) is set as 0%.

Hep G2 cell line = assay: solid tumor cell growth inhibition, MTT; format: cell-based, human; conditions: Homo sapiens; for inhibition at 16 µg/mL: HepG2, 72 h, Hep G2, 16 μg/mL compound, 72 h, read-out: IR (cell proliferation inhibition rate); for IC50: HepG2, Hep G2, 72 h
Procedure: as §1, §2

Row | IC50 (RKO cell line) [µg/mL] | IC50 (MGC 803 cell line) [µg/mL] | IC50 (A549 cell line) [µg/mL] | IC50 (PC-3 cell line) [µg/mL] | IC50 (U87 MG cell line) [µg/mL] | IC50 (Hep-2 cell line) [µg/mL] | IC50 (PANC-1 cell line) [µg/mL] | IC50 (Hela cell line) [µg/mL] | IC50 (CaES-17 cell line) [µg/mL] | IC50 (SK-OV-3 cell line) [µg/mL] | Structure (SMILES) | inhibition at 16 µg/mL (RKO cell line) [%] | inhibition at 16 µg/mL (MGC 803 cell line) [%] | inhibition at 16 µg/mL (A549 cell line) [%] | inhibition at 16 µg/mL (PC-3 cell line) [%] | inhibition at 16 µg/mL (U87 MG cell line) [%] | inhibition at 16 µg/mL (Hep-2 cell line) [%] | inhibition at 16 µg/mL (PANC-1 cell line) [%] | inhibition at 16 µg/mL (Hela cell line) [%] | inhibition at 16 µg/mL (CaES-17 cell line) [%] | inhibition at 16 µg/mL (SK-OV-3 cell line) [%] | further results
1 | > 16 | > 16 | > 16 | > 16 | > 16 | > 16 | > 16 | > 16 | > 16 | > 16 | CCC(C)CNC(=O)C1C[C@@]2(C)C(CC[C@]3(C)C2CC=C2C4CC(C)(C)CC[C@]4(C(=O)OC)CC[C@]23C)C(C)(C)C1=O (some centres unmarked) [BS-OA-008] | -18.6 | -12.4 | 3.4 | 12 | 30.1 | 3.5 | -4.6 | 0.5 | -12.7 | 14.3 | IC50 (MG-63 cell line): > 16 µg/mL; inhibition at 16 µg/mL (MG-63 cell line): -12.1%; inhibition at 16 µg/mL (CNE cell line): 15.1%; IC50 (CNE cell line): > 16 µg/mL; inhibition at 16 µg/mL (Becap37 cell line): 2.3%; IC50 (Becap37 cell line): > 16 µg/mL; IC50 (H9 cell line): > 16 µg/mL; inhibition at 16 µg/mL (H9 cell line): 39.8%; IC50 (K562/adr cell line): 8 µg/mL (≈ 13.7 µM); inhibition at 16 µg/mL (K562/adr cell line): 70.1%; inhibition at 16 µg/mL (NB4 cell line): 6.3%; IC50 (NB4 cell line): > 16 µg/mL; inhibition at 16 µg/mL (Kasumi-1 cell line): 6.7%; IC50 (Kasumi-1 cell line): > 16 µg/mL; inhibition at 16 µg/mL (Jurkat cell line): -33.8%; IC50 (Jurkat cell line): > 16 µg/mL; inhibition at 16 µg/mL (RPMI8226 cell line): 30%; IC50 (RPMI8226 cell line): > 16 µg/mL; inhibition at 16 µg/mL (Hep G2 cell line): 8.1%; IC50 (Hep G2 cell line): > 16 µg/mL
2 | 2 (≈ 3.27 µM) | 2.56 (≈ 4.19 µM) | 2.83 (≈ 4.63 µM) | 5.08 (≈ 8.32 µM) | 2.56 (≈ 4.19 µM) | 5.5 (≈ 9 µM) | 4.73 (≈ 7.74 µM) | 4.19 (≈ 6.86 µM) | 1.91 (≈ 3.13 µM) | 3.77 (≈ 6.17 µM) | CCN(CC)CCNC(=O)C1C[C@@]2(C)C(CC[C@]3(C)C2CC=C2C4CC(C)(C)CC[C@]4(C(=O)OC)CC[C@]23C)C(C)(C)C1=O (some centres unmarked) [BS-OA-012] | 97.6 | 100 | 97.4 | 99.7 | 98.5 | 99.9 | 100 | 96.9 | 99.1 | 98.9 | IC50 (MG-63 cell line): 2.2 µg/mL (≈ 3.6 µM); inhibition at 16 µg/mL (MG-63 cell line): 100%; inhibition at 16 µg/mL (CNE cell line): 98.8%; IC50 (CNE cell line): 3.74 µg/mL (≈ 6.12 µM); inhibition at 16 µg/mL (Becap37 cell line): 98.4%; IC50 (Becap37 cell line): 4.42 µg/mL (≈ 7.23 µM); IC50 (H9 cell line): 3.05 µg/mL (≈ 4.99 µM); inhibition at 16 µg/mL (H9 cell line): 95%; IC50 (K562/adr cell line): 1.09 µg/mL (≈ 1.78 µM); inhibition at 16 µg/mL (K562/adr cell line): 99%; inhibition at 16 µg/mL (NB4 cell line): 99.2%; IC50 (NB4 cell line): 2.79 µg/mL (≈ 4.57 µM); inhibition at 16 µg/mL (Kasumi-1 cell line): 99.3%; IC50 (Kasumi-1 cell line): 3.18 µg/mL (≈ 5.21 µM); inhibition at 16 µg/mL (Jurkat cell line): 97%; IC50 (Jurkat cell line): 2.26 µg/mL (≈ 3.7 µM); inhibition at 16 µg/mL (RPMI8226 cell line): 99%; IC50 (RPMI8226 cell line): 0.74 µg/mL (≈ 1.21 µM); inhibition at 16 µg/mL (Hep G2 cell line): > 96%; IC50 (Hep G2 cell line): 2.36 µg/mL (≈ 3.86 µM)
